Measured values reported in the supplement of paper PMC11208160.

experiment: recombinant UMI read abundance after kanamycin selection (control-corrected) (log10(CPM+1)); higher = more efficient recombination; extreme values may be limits of the assay; sequences stand for … in AGTGCAGAGAAAATCGGCCAGTTTTCTCTGCCTGCAGTCCGCATGCCGTGGGACCCCTTGGGTTCTAACCTGTTGCCTAGATTTATGCAGCGGACTGCCTTTCTCCCAAAGTGATAAACCGG…AGGTTGGTTTCACT; site = the 11-nt donor
Summary of the method: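 The measure is log10(CPM+1) for recombinant UMIs. These were PCR-amplified across the donor–target junction and sequenced after Escherichia coli carrying a donor and donor-binding-loop pair library and a target plasmid with T7-inducible IS621 bridge recombinase was plated on IPTG (0.07 mM) plus kanamycin or unselected. CPM were averaged over two replicates and scaled by control-derived factors.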
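Further: IS621 bridge recombinase in Escherichia coli cells against a fixed T5 target plasmid.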

Point of comparison: “AGATCCCCATGGACCGGTTTTCCCGGTAATCCGTATTTGTA (site AGATCCCCTTA)”, “recombinant UMI read abundance (log10)” value 0.595. Against it:
- GTGGATACATGGACCGGTTTTCCCGGTAATCCGTATTTGCA (site GTGGATACTTG) — higher, 1.84
- CGGACATCATGGACCGGTTTTCCCGGTAATCCGTATTTGCT (site CGGACAGCTAG) — lower, 0.00346
- TCAGCGACATGGACCGGTTTTCCCGGTAATCCGTATTTGCG (site TCAGGGACTCG) — lower, 0.0187
- CCCGGTCCATGGACCGGTTTTCCCGGTAATCCGTATTTGCA (site TCCGGTCCTTG) — lower, 0.00534
- ATAAGGCCATGGACCGGTTTTCCCGGTAATCCGTATTTGAC (site ATAAGGCCTAT) — lower, 0.214
- CGATCGACATGGACCGGTTTTCCCGGTAATCCGTATTTGTG (site CGATCGACTAA) — lower, 0.242
- CCCTTTACATGGACCGGTTTTCCCGGTAATCCGTATTTGCT (site CCATTTACTAG) — lower, 0
- ATTCATACATGGACCGGTTTTCCCGGTAATCCGTATTTGTT (site ATTCATACTAA) — lower, 0.291
- CGTGGATCATGGACCGGTTTTCCCGGTAATCCGTATTTGTT (site CGTGGAGCTAA) — lower, 0
- CTCCACACATGGACCGGTTTTCCCGGTAATCCGTATTTGTA (site CCCCACACTTA) — within 0.2 log units, 0.728
- CCAGGTGCATGGACCGGTTTTCCCGGTAATCCGTATTTGAT (site CCAGGTGCTAT) — higher, 1.32
- CTAACAGCATGGACCGGTTTTCCCGGTAATCCGTATTTGTA (site CTAACAGCTTA) — higher, 2.48
- AGATGAGCATGGACCGGTTTTCCCGGTAATCCGTATTTGCA (site AGATGAGCTTG) — higher, 2.71
- GCAAAAACATGGACCGGTTTTCCCGGTAATCCGTATTTGCT (site GCTAAAACTAG) — lower, 0
- AGCCTTTCATGGACCGGTTTTCCCGGTAATCCGTATTTGGC (site AGCCTTTCTGG) — lower, 0
- ATCCGAGCATGGACCGGTTTTCCCGGTAATCCGTATTTGAG (site ATCCTAGCTCT) — lower, 0.0162
- GCCACGCCATGGACCGGTTTTCCCGGTAATCCGTATTTGTT (site GCCACGCCTAA) — lower, 0.0554
- CAAGCTCCATGGACCGGTTTTCCCGGTAATCCGTATTTGTG (site CAAGCGCCTCA) — lower, 0.0257
- TACAGCGCATGGACCGGTTTTCCCGGTAATCCGTATTTGCG (site TACAGCGCTCG) — lower, 0.00572
- CCATGCTCATGGACCGGTTTTCCCGGTAATCCGTATTTGAA (site CCATGCTCTTT) — within 0.2 log units, 0.703
- TCAGCTGCATGGACCGGTTTTCCCGGTAATCCGTATTTGTG (site TGAGCTGCTCA) — lower, 0.00568
- ATGTATGCATGGACCGGTTTTCCCGGTAATCCGTATTTGGC (site ATGTACGCTGC) — higher, 1.51
- CCAGGTGCATGGACCGGTTTTCCCGGTAATCCGTATTTGAT (site CCACGTGCTAT) — within 0.2 log units, 0.497
- GGTTGCCCATGGACCGGTTTTCCCGGTAATCCGTATTTGAT (site GCTTGCCCTAT) — lower, 0.0066
- TCCAATCCATGGACCGGTTTTCCCGGTAATCCGTATTTGCC (site TCCAATTCTGG) — lower, 0
- AGGAAGACATGGACCGGTTTTCCCGGTAATCCGTATTTGCA (site AGGGTGACTTG) — lower, 0.161
- TAGCTAGCATGGACCGGTTTTCCCGGTAATCCGTATTTGAA (site TAGCTTGCTTT) — lower, 0.00961
- TCCTAGACATGGACCGGTTTTCCCGGTAATCCGTATTTGGG (site ACCTAGACTCC) — lower, 0.034
- CCCATCTCATGGACCGGTTTTCCCGGTAATCCGTATTTGGG (site CCCGTCTCTCC) — lower, 0.00519
- CGAACATCATGGACCGGTTTTCCCGGTAATCCGTATTTGAT (site CGATCATCTAG) — lower, 0
- GCAACTGCATGGACCGGTTTTCCCGGTAATCCGTATTTGCC (site GCCACTGCTGG) — lower, 0
- CTGAATTCATGGACCGGTTTTCCCGGTAATCCGTATTTGCC (site CTGAATTCTGG) — higher, 1.06
- CCATGTGCATGGACCGGTTTTCCCGGTAATCCGTATTTGAT (site CCAGGTGCTAT) — lower, 0.00344
- CAGTAGACATGGACCGGTTTTCCCGGTAATCCGTATTTGGG (site CAGTCGACTCC) — lower, 0.00641
- TGACTATCATGGACCGGTTTTCCCGGTAATCCGTATTTGTA (site TGACTATCTTA) — higher, 2.58
- CGATCGACATGGACCGGTTTTCCCGGTAATCCGTATTTGTT (site AGATCGACTAA) — lower, 0.0131
